Experimental data reported in patent US10034879B2, “Substituted benzaldehyde compounds and methods for their use in increasing tissue oxygenation” (Global Blood Therapeutics, Inc., priority 2011, dated 2018).

Molecular target: T1, purified HBS (Homo sapiens, UniProt P68871+P69905, E7V)
T1 construct: HbS is purified by the CRO VIRUSYS, from blood obtained from homozygous sickle cell patients; tissue VIRUSYS (CRO that did the purification); host or cells: blood of homozygous sickle cell patients
Assay: HbS polymerization assay (delay time)
Type: biochemical
Settings: 50 μM purified HBS, 1.8 M potassium phosphate pH 7.4
Procedure: Polymerization assays are carried out in vitro using purified HBS exchanged into 1.8 M potassium phosphate buffer at pH 7.4. Using a slightly modified protocol (Antonini and Brunori, 1971), HbS is purified by the CRO VIRUSYS, from blood obtained from homozygous sickle cell patients through the Hemoglobinopathy Center at Children's Hospital Oakland Research Institute (CHORI) with Institutional Review Board approval. Compounds are prepared in 100% DMSO and a desired amount is added to 50 μM of purified HBS at a final DMSO concentration of 0.3%. Final potassium phosphate concentration is adjusted to 1.8 M using a combination of 2.5 M potassium phosphate stock solution and water at pH 7.4. The reaction mixture is incubated for an hour at 37° C. and then transferred into a 24-well plate for deoxygenation in a glove box containing 99.5% nitrogen and 0.5% oxygen. The 24-well plate is not covered and incubated at 4° C. on a plate cooler inside the glove box for one and a half hours. Fifty μL of the reaction mixture is transferred into a 96-well plate and the absorbance at 700 nm is measured every minute for one hour at 37° C. in a plate reader located inside the glove box. A plot of the absorbance against time is fitted using a Boltzman sigmoidal fit and the delay time (from zero to time at half Vmax) is measured. To compare and rank compounds, delay times are expressed as percent delay (% DT), which is defined as the difference in delay times for HBS/compound and HBS alone multiplied by 100 and divided by the delay time for HBS alone.
Compounds listed below have been tested in the polymerization assay. Activity ranges are defined by the number of dagger (†) symbols indicated. † denotes activity ≤40% but ≤80%; †† denotes activity >80% but ≤120%; ††† denotes activity >120% but ≤140%; †††† denotes activity >160%.

% delta Delay: †† (†† denotes activity >80% but ≤120%)
SMILES: CC(C)n1nccc1-c1ncccc1COc1cccc(O)c1C=O [Compound 43, 2-hydroxy-6-((2-(1-isopropyl-1H-pyrazol-5-yl)pyridin-3-yl)methoxy)benzaldehyde]
